According to US6492416B1, “4,5-diaryl-3(2H)-furanone derivatives as cyclooxygenase-2 inhibitors” (Pacific Corporation, priority 1999, dated 2002):
Converted amounts (≈) assume the structure as drawn.

Columns and labels:
[1] = biological target: T1, COX-2 (Mus musculus, UniProt Q05769); assay: Evaluation of COX-2 activity: PGE2 formation in aspirin-treated, LPS-stimulated mouse peritoneal macrophages; assay type: cell-based
T1 sequence (Q05769 18-604): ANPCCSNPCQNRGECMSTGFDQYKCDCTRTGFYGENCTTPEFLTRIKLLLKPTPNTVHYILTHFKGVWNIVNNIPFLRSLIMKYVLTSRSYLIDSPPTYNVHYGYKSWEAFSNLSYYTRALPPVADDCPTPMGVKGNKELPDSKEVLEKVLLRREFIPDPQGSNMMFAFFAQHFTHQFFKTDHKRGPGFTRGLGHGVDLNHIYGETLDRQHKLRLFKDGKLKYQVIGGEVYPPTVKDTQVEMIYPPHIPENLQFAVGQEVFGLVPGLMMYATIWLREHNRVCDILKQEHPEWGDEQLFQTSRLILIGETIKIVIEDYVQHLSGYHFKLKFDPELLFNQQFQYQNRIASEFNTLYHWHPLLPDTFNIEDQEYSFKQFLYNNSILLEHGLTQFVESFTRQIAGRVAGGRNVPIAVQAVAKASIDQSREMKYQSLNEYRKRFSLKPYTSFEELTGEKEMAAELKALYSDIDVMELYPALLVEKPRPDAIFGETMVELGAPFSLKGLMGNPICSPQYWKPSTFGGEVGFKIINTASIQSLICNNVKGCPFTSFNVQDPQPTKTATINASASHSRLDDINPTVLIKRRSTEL
Method in brief: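 C57BL/6 peritoneal macrophages treated with 500 μM aspirin to block COX-1, adhered, then stimulated with 10 μg/ml LPS for 16 h at 37 °C to induce COX-2.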

[2] = biological target: T2, COX-1 (Mus musculus, UniProt P22437); assay: Evaluation of COX-1 activity: PGE2 formation in mouse peritoneal macrophages without aspirin and LPS treatment; assay type: cell-based
T2 sequence (P22437 27-602): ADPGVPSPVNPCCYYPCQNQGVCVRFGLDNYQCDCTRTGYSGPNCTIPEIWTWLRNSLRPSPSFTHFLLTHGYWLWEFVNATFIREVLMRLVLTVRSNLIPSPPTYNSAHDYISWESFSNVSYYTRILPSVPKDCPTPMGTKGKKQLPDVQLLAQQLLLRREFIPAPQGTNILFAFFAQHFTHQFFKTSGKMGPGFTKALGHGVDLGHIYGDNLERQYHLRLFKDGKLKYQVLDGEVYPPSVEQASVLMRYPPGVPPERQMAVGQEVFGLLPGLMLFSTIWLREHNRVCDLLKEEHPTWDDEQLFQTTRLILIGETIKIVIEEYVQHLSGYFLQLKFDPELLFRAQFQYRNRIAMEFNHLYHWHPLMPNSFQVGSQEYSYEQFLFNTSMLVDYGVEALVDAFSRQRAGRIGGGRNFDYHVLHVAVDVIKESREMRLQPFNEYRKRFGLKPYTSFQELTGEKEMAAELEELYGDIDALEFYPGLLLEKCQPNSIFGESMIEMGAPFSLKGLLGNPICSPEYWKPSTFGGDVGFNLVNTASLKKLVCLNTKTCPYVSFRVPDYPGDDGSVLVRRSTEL
Method in brief: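 Peritoneal macrophages from C57BL/6 mice, without aspirin or LPS treatment, were plated at 1×10^6 cells/ml and fixed 2 h at 37 °C. Cells were preincubated 10 min, then given 10 μM arachidonic acid plus compound for 10 min; PGE2 was measured by RIA or EIA. IC50 came from 4–5 concentrations.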

[3] = test system: male Sprague-Dawley (SD) rats; assay: Carrageenan-induced foot edema in rats (CFE); assay type: in vivo; conditions: oral dose 3 mg/kg body weight, rat, paw volume 3 hours after Carrageenan
Experimental: An appropriate amount of a compound of this invention suspended in 1% methylcellulose (MC) solution was administered to male Sprague-Dawley (SD) rats weighing 150˜200 g by oral gavage. The volume of the administered vehicle for a compound of this invention was controlled to be smaller than 10 ml/kg body weight of the animal. One hour later, 0.1 ml of 1% Carrageenan saline solution was directly injected into the right paw of the rats to induce edema in the paw. The paw volumes at 0 hour and at 3 hours after the injection of Carrageenan were measured by using a displacement plethysmometer (Ugo Basile, Italy). The paw volumes were used to calculate % inhibition of CFE by an amount of a compound of this invention according to the following equation.
% Inhibition of CFE=(1−Δtreated/Δcontrol)×100
wherein Δtreated=[paw volume at three hours after the Carrageenan injection−paw volume right after Carrageenan injection] for a drug-administered rat, and Δcontrol=[paw volume at three hours after the Carrageenan injection−paw volume right after Carrageenan injection] for a rat without drug administration.
In order to determine the inhibitory activity of a compound of this invention at a dose, usually 5 to 8 animals were used both for drug-treated group and for control group.

IC50, μg/ml COX-2 [1] [µg/mL] | IC50, μg/ml COX-1 [2] [µg/mL] | melting point [°C] | IC50 ([1]; read-out: IC50, μg/ml COX-2 (converted)) [µM] | IC50 ([2]; read-out: IC50, μg/ml COX-1 (converted)) [µM] | Molecule | % Inhibition (CFE) [3] [%]
 |  | 114 to 115 |  |  | Cn1cc(C2=C(c3ccc(S(C)(=O)=O)cc3)OC(C)(C)C2=O)cn1 [Example 20, 2,2-Dimethyl-4-{4-(1-N-methylpyrazolyl)}-5-{4-(methylsulfonyl)phenyl)-3(2H)-furanone] | 36
0.0014 (≈ 0.00347 µM) | 0.83 (≈ 2.06 µM) | 185 |  |  | CCSc1ccc(C2=C(c3ccc(S(N)(=O)=O)cc3)OC(C)(C)C2=O)cc1 [Example 146] | 24
0.038 (≈ 0.1 µM) | 5.15 (≈ 13.6 µM) | 182 to 183 |  |  | CC1(C)OC(c2ccc(S(N)(=O)=O)cc2)=C(c2cc(F)ccc2F)C1=O [Example 157] | 41
0.03 (≈ 0.0864 µM) | 100 (≈ 288 µM) |  |  |  | Cn1cc(C2=C(c3ccc(S(N)(=O)=O)cc3)OC(C)(C)C2=O)cn1 [Example 164] | 29
1 (≈ 2.9 µM) |  | 143 to 144 |  |  | C[S+]([O-])c1ccc(C2=C(c3cccc(F)c3)C(=O)C(C)(C)O2)cc1 (stereo not shown) [Example 176, 2,2-dimethyl-4-(3-fluorophenyl)-5-{4-(methylsulfinyl)phenyl}-3(2H)-furanone] | 23
5 (≈ 13.8 µM) | 30 (≈ 82.8 µM) | 133 to 134 |  |  | C[S+]([O-])c1ccc(C2=C(c3cc(F)cc(F)c3)C(=O)C(C)(C)O2)cc1 (stereo not shown) [Example 177, 4-(3,5-Difluorophenyl)-2,2-dimethyl-5-{4-(methylsulfinyl)phenyl}-3(2H)-furanone] | 37
0.03 (≈ 0.0784 µM) | 3 (≈ 7.84 µM) | 142 to 143 |  |  | Cc1cccc(C2=C(c3ccc(S(C)(=O)=O)cc3)OC3(CCCC3)C2=O)c1 [Example 255] | 31
0.03 (≈ 0.0757 µM) | 10 (≈ 25.2 µM) | 158 to 159 |  |  | CC1(C)OC(c2ccc(S(C)(=O)=O)c(F)c2)=C(c2ccc(F)c(F)c2)C1=O [Example 284] | 33

Second part, the molecule before the results:

Molecule | IC50, μg/ml COX-2 [1] [µg/mL] | IC50, μg/ml COX-1 [2] [µg/mL] | melting point [°C] | IC50 ([1]; read-out: IC50, μg/ml COX-2 (converted)) [µM] | IC50 ([2]; read-out: IC50, μg/ml COX-1 (converted)) [µM] | % Inhibition (CFE) [3] [%]
5-{(aminosulfonyl)-3-fluorophenyl}-4-(3,5-difluorophenyl)-2,2-dimethyl-3(2H)-furanone [Example 312] | 0.02 | 100 |  |  |  | 31
CC1(C)OC(c2ccc(S(N)(=O)=O)cc2)=C(c2cccc(C(F)(F)F)c2)C1=O [Example 23, 5-{4-(Aminosulfonyl)phenyl}-2,2-dimethyl-4-{3-(trifluoromethyl)phenyl}-3(2H)-furanone] |  |  |  |  |  | 33
CC(C)c1ccc(C2=C(c3ccc(S(C)(=O)=O)cc3)OC(C)(C)C2=O)cc1 [Example 84] | 0.03 (≈ 0.078 µM) | 3 (≈ 7.8 µM) | 121 to 123 |  |  | 25
CC1(C)OC(c2ccc(S(N)(=O)=O)cc2)=C(c2ccccc2F)C1=O [Example 155] | 0.016 (≈ 0.0443 µM) | 1.8 (≈ 4.98 µM) | 188 to 189 |  |  | 35
CCC1(C)OC(c2ccc(S(C)(=O)=O)cc2)=C(c2cccc(Cl)c2)C1=O (stereo not shown) [Example 195] |  |  | 94 to 95 | 0.0767 | 12.8 | 28
CC1(C)OC(c2ccc(S(C)(=O)=O)c(F)c2)=C(c2ccc(F)cc2)C1=O [Example 276] | 0.05 (≈ 0.132 µM) | 10 (≈ 26.4 µM) | 160 to 161 |  |  | 26
CC1(C)OC(c2ccc(S(C)(=O)=O)c(F)c2)=C(c2cccc(Cl)c2)C1=O [Example 278] | 0.05 (≈ 0.127 µM) | 30 (≈ 76 µM) | 108 to 109 |  |  | 27
